In article PMC4938718 (Structure (London, England : 1993), 2016):

Legend:
[1] = biological target: T1, HisF subunit of imidazole glycerol phosphate synthase (IGPS) (Thermotoga maritima, UniProt Q9X0C6); assay: NMR lineshape analysis of titration; assay type: binding
T1 sequence (Q9X0C6 1-253): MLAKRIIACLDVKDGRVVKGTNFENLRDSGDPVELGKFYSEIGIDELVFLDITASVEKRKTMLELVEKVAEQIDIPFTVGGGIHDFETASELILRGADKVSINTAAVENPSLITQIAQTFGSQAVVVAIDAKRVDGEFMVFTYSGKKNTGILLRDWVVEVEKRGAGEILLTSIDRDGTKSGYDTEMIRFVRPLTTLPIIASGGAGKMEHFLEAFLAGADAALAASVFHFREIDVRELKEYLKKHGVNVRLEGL
T1 sequence (Q9X0C8 1-201 partner): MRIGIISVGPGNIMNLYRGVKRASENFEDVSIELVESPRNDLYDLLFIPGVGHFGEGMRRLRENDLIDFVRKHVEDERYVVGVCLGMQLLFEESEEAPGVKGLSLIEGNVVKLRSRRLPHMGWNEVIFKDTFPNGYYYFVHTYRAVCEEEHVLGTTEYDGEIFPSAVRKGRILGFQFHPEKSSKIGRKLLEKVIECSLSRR

[2] = biological target: T2, HisH subunit of imidazole glycerol phosphate synthase (IGPS) (Thermotoga maritima, UniProt Q9X0C8); assay: covalent labeling, loss of free Cys thiol confirmed by DTNB assay; assay type: binding
T2 sequence (Q9X0C8 1-201): T1 sequence (Q9X0C8 1-201 partner)
T2 sequence (Q9X0C6 1-253 partner): T1 sequence (Q9X0C6 1-253)

In the case of `NC(=O)c1ncn([C@@H]2O[C@H](COP(=O)(O)O)[C@@H](O)[C@H]2O)c1N` [AICAR], the Kd [1] is reported as 1500 ± 200 µM.
In the case of `N[C@H](C(=O)O)[C@@H]1CC(Cl)=NO1` [acivicin], the “covalent labeling, loss of free Cys thiol confirmed by DTNB assay” value [2] is reported as “Covalent modification of IGPS with the non-hydrolyzable Gln analogue acivicin was achieved by incubating IGPS with two molar equivalents”.
